# Experimental data taken from patent publication US9365583B2, “Substituted pyrazoles and uses thereof” (Genentech, Inc., priority 2013, dated 2016).
# Biological target: T1, N-terminally GST-tagged DLK (catalytic domain amino acid 1-520) (Homo sapiens, UniProt Q12852)
# T1 construct: N-terminally GST-tagged DLK (catalytic domain amino acid 1-520); purchased Carna Bioscience
# T1 sequence (Q12852 1-520): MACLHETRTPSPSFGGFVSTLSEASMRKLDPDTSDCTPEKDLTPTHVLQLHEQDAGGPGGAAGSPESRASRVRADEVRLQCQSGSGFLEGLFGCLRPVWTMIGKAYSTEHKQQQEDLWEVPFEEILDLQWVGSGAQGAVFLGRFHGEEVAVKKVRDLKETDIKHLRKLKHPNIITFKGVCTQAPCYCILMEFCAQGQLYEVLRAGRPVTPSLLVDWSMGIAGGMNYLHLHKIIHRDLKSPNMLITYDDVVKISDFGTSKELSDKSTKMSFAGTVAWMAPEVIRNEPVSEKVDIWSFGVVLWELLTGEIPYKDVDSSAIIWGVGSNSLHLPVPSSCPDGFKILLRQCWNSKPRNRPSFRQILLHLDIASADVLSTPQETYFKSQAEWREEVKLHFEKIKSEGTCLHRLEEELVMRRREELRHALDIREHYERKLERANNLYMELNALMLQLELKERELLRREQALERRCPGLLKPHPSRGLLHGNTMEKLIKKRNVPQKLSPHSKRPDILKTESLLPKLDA
# Assay: DLK TR-FRET inhibition assay
# Format: biochemical
# Conditions: 5 nM GST-DLK, 40 nM HIS-MKK4 K131M substrate, 30 μM ATP, 60 minutes at ambient temperature
# Procedure, shortened: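 5 nM GST-DLK (aa 1-520), 40 nM HIS-MKK4 K131M and 30 μM ATP reacted 60 min at ambient temperature in HEPES pH 7.5 buffer with 10 mM MgCl2, compound 1:3 serially diluted from 20 uM. TR-FRET detection of phospho-MKK4 used Eu-cryptate anti-phospho-MKK4 plus D2 anti-HIS, read after 3 h (665/615 nm).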
row,Structure (SMILES),Ki [nM]
1,"COC1CN([C@@H]2C[C@@H]3[C@H](C2)[C@H]3c2cc(-c3cnc(N)c(C(F)(F)F)c3)nn2CC(F)F)C1 [compound 149, 5-(1-(2,2-difluoroethyl)-5-((1R,3s,5S,6r)-3-(3-methoxyazetidin-1-yl)bicyclo[3.1.0]hexan-6-yl)-1H-pyrazol-3-yl)-3-(trifluoromethyl) pyridin-2-amine]",4.1
2,"CC(C)n1nc(-c2cnc(N)c(OC(F)F)c2)cc1[C@H]1[C@@H]2C[C@H](N3CCN(CC(F)F)CC3)C[C@@H]21 [compound 264, 5-(5-((1R,3r,5S,6r)-3-(4-(2,2-difluoroethyl)piperazin-1-yl)bicyclo [3.1.0]hexan-6-yl)-1-isopropyl-1H-pyrazol-3-yl)-3-(difluoromethoxy)pyridin-2-amine]",1.8
3,"CC(C)n1nc(-c2cnc(N)c(C(F)(F)F)c2)cc1[C@H]1[C@@H]2C[C@H](OC3COC3)C[C@@H]21 [compound 287, 5-(1-isopropyl-5-((1R,3r,5S,6r)-3-(oxetan-3-yloxy)bicyclo[3.1.0]hexan-6-yl)-1H-pyrazol-3-yl)-3-(trifluoromethyl)pyridin-2-amine]",6.3
4,"CC(C)n1nc(-c2cnc(N)c(OC(F)F)c2)cc1[C@H]1[C@@H]2C[C@@H](N3CCO[C@@H](C)C3)C[C@@H]21 [compound 75, 3-(difluoromethoxy)-5-(1-isopropyl-5-((1R,3s,5S,6S)-3-((S)-2-methylmorpholino)bicyclo[3.1.0]hexan-6-yl)-1H-pyrazol-3-yl) pyridin-2-amine]",0.74
5,"Nc1ncc(-c2cc([C@H]3[C@@H]4C[C@H](N5CCOCC5)C[C@@H]43)n(CC3CC3)n2)cc1C(F)(F)F [compound 273, 5-(1-(cyclopropylmethyl)-5-((1R,3r,5S,6r)-3-morpholinobicyclo [3.1.0]hexan-6-yl)-1H-pyrazol-3-yl)-3-(trifluoromethyl)pyridin-2-amine]",1.3
6,"CC(C)n1nc(-c2cnc(N)c(OC(F)F)c2)cc1C1[C@H]2CC(N3CCOCC(F)C3)C[C@@H]12 (single isomer, unassigned) [compound 173]",4.5
7,"CC(C)n1nc(-c2cnc(N)c(OC(F)F)c2)cc1[C@H]1[C@@H]2C[C@H](N3CCOCC3)C[C@@H]21 [compound 86, 3-(difluoromethoxy)-5-(1-isopropyl-5-((1R,3r,5S,6r)-3-morpholino-bicyclo[3.1.0]hexan-6-yl)-1H-pyrazol-3-yl)pyridin-2-amine]",1.6
8,"CO[C@@H]1CCN([C@@H]2C[C@@H]3[C@H](C2)[C@H]3c2cc(-c3cnc(N)c(OC(F)F)c3)nn2C(C)C)C1 [compound 194, 3-(difluoromethoxy)-5-(1-isopropyl-5-((1R,3s,5S,6R)-3-((R)-3-methoxypyrrolidin-1-yl)bicyclo [3.1.0]hcxan-6-yl)-1 H-pyrazol-3-yl)pyridin-2-amine]",2
9,"CO[C@@H]1CCN([C@H]2C[C@@H]3[C@H](C2)[C@H]3c2cc(-c3cnc(N)c(OC(F)(F)F)c3)nn2C(C)C)C1 [compound 22, 5-(1-isopropyl-5-((1R,3r,5S,6R)-3-((R)-3-methoxypyrrolidin-1-yl)bicyclo[3.1.0]hexan-6-yl)-1H-pyrazol-3-yl)-3-(trifluoro-methoxy)pyridin-2-amine]",1.57
10,"CC(C)n1nc(-c2cnc(N)c(C(F)(F)F)c2)cc1[C@H]1[C@@H]2C[C@H](N3CC(C#N)C3)C[C@@H]21 [compound 70, 1-((1R,3r,5S,6r)-6-(3-(6-amino-5-(trifIuoromethyl)pyridin-3-yl)-1-isopropyl-1H-pyrazol-5-yl)bicyclo[3.1.0]hexan-3-yl)azetidine-3-carbonitrile]",2.9
11,"Nc1ncc(-c2cc([C@@H]3[C@@H]4C[C@H](N5CCOCC5)C[C@@H]43)n(CC3CC3)n2)cc1OC(F)(F)F [compound 283, 5-(1-(cyclopropylmethyl)-5-((1R,3r,5S,6s)-3-morpholinobicyclo [3.1.0]hexan-6-yl)-1H-pyrazol-3-yl)-3-(tritluoromethoxy) pyridin-2-amine]",209
12,"CC(C)n1nc(-c2cnc(N)c(C(F)(F)F)c2)cc1[C@H]1[C@@H]2CC(C#N)C[C@@H]21 (single isomer, unassigned) [compound 191]",7.8
13,"Nc1ncc(-c2cc([C@H]3[C@@H]4C[C@H](N5CCOCC5)C[C@@H]43)n(C3CCCC3)n2)cc1OC(F)F [compound 129, 5-(1-cyclopentyl-5-((1R,3r,5S,6r)-3-morpholinobicyclo[3.1.0]hexan-6-yl)-1H-pyrazol-3-yl)-3-(difluoromethoxy)pyridin-2-amine]",4.52
14,"CC(C)n1nc(-c2cnc(N)c(C(F)(F)F)c2)cc1[C@H]1[C@@H]2C[C@H](N(C)CC3COC3)C[C@@H]21 [compound 20, 5-(1-isopropyl-5-((1R,3r,5S,6r)-3-(methyl(oxetan-3-ylmethyl)amino)bicyclo[3.1.0]hexan-6-yl)-1H-pyrazol-3-yl)-3-(trifluoro-methyl)pyridin-2-amine]",4.39
15,"CC(C)n1nc(-c2cnc(N)c(C(F)(F)F)c2)cc1[C@H]1[C@@H]2C[C@@H](N3CCN4CCCC4C3)C[C@@H]21 (single isomer, unassigned) [compound 263]",1
16,"COC1CCN([C@H]2C[C@@H]3[C@H](C2)[C@H]3c2cc(-c3cnc(N)c(OC(F)F)c3)nn2C(C)C)CC1 [compound 247, 3-(difluoromethoxy)-5-(1-isopropyl-5-((1R,3r,5S,6r)-3-(4-methoxypiperidin-1-yl)bicyclo[3.1.0]hexan-6-yl)-1H-pyrazol-3-yl) pyridin-2-amine]",2.9
17,"CO[C@H]1CCN([C@@H]2C[C@@H]3[C@H](C2)[C@H]3c2cc(-c3cnc(N)c(C(F)(F)F)c3)nn2C(C)C)C1 [compound 90, (1-isopropyl-5-((1R,3s,5S,6S)-3-((S)-3-methoxypyrrolidin-1-yl)bicyclo[3.1.0]hexan-6-yl)-1H-pyrazol-3-yl)-3-(trifluoromethyl) pyridin-2-amine]",5.95
18,"CC(C)n1nc(-c2cnc(N)c(C(F)(F)F)c2)cc1[C@@H]1[C@H]2CC[C@@H](N3CCOCC3)[C@H]21 (single isomer, unassigned) [compound 139, 5-(1-isopropyl-5-(2-morpholinobicyclo[3.1.0]hexan-6-yl)-1H-pyrazol-3-yl)-3-(trifluoromethyl) pyridin-2-amine]",65.7
19,"CC(C)n1nc(-c2cnc(N)c(OC(F)F)c2)cc1[C@H]1[C@@H]2CC(=O)C[C@@H]21 [compound 85, (1R,5S,6r)-6-(3-(6-amino-5-(difluoro-methoxy)pyridin-3-yl)-1-isopropyl-1H-pyrazol-5-yl)bicyclo [3.1.0]hexan-3-one]",47.8
20,"CC(C)n1nc(-c2cnc(N)c(OC(F)(F)F)c2)cc1[C@H]1[C@@H]2C[C@@H](N3CCO[C@@H](C)C3)C[C@@H]21 [compound 113, 5-(1-isopropyl-5-((1R,3s,5S,6S)-3-((S)-2-methylmorpholino)bicyclo[3.1.0]hexan-6-yl)-1H-pyrazol-3-yl)-3-(trifluoromethoxy) pyridin-2-amine]",4.23
21,"Nc1ncc(-c2cc([C@H]3[C@@H]4C[C@@H](N5CCOCC5)C[C@@H]43)nn2C2CCC2)cc1OC(F)F [compound 133, 5-(1-cyclobutyl-3-((1R,3s,5S,6r)-3-morpholinobicyclo[3.1.0]hexan-6-yl)-1H-pyrazol-5-yl)-3-(difluoromethoxy)pyridin-2-amine]",≥ 321
22,"CC(C)n1nc(-c2cnc(N)c(OC(F)F)c2)cc1[C@H]1[C@@H]2C[C@@H](N3CCOCC(F)(F)C3)C[C@@H]21 [compound 183, 5-(5-((1R,3s,5S,6r)-3-(6,6-difluoro-1,4-oxazepan-4-yl)bicyclo [3.1.0]hexan-6-yl)-1-isopropyl-1H-pyrazol-3-yl)-3-(difluoro-methoxy)pyridin-2-amine]",4.5
23,"CC(C)n1nc(-c2cnc(N)c(C(F)(F)F)c2)cc1[C@H]1[C@@H]2C[C@@H](N3CCS(=O)(=O)CC3)C[C@@H]21 [compound 9, 4-((1R,3s,5S,6r)-6-(3-(6-amino-5-(trifluoromethyl)pyridin-3-yl)-1-isopropyl-1H-pyrazol-5-yl)bicyclo[3.1.0]hexan-3-yl)thio-morpholine 1,1-dioxide]",4
24,"Nc1ncc(-c2cc([C@H]3[C@@H]4C[C@@H](N5CCOCC5)C[C@@H]43)n(CC(F)F)n2)cc1C(F)(F)F [compound 293, 5-(1-(2,2-difluoroethyl)-5-((1R,3s,5S,6r)-3-morpholinobicyclo [3.1.0]hexan-6-yl)-1H-pyrazol-3-yl)-3-(trifluoromethyl)pyridin-2-amine]",3
25,"CO[C@H]1CCN([C@H]2C[C@@H]3[C@H](C2)[C@H]3c2cc(-c3cnc(N)c(OC(F)F)c3)nn2CC2CC2)C1 [compound 158, 5-(1-(cyclopropylmcthyl)-5-((1R,3r,5S,6S)-3-((S)-3-methoxy-pyrrolidin-1-yl)bicyclo[3.1.0]hexan-6-yl)-1H-pyrazol-3-yl)-3-(difluoromethoxy)pyridin-2-amine]",1.2
